The values below are quoted from earlier work in patent US20230404944A1, “CANNABINOID ENCAPSULATION TECHNOLOGY” (ZELIRA THERAPEUTICS OPERATIONS PTY LTD, priority 2020, published 2023).

Take `C=C(C)[C@@H]1CCC(C)=C[C@H]1c1c(O)cc(CCCCC)cc1O` [CBD, cannabidiol]: the “Oral bioavailability in plasma” value (plasma) was “approximately 6%”. For the setting “tissues”, the “Oral bioavailability in tissues” value is around 1%.
